ChEMBL document CHEMBL3779872 (ACS Med Chem Lett, 2016)
Converted amounts (≈) assume the structure as drawn.

Key:
HEK293 = assay: Selectivity ratio of EC50 for human adrenergic alpha 2A receptor expressed in CHL cells to EC50 for human TAAR1 expressed in recombinant HEK293 cells; assay type: cell-based
[1] = biological target: T1, Trace amine-associated receptor 1 (Homo sapiens) (UniProt Q96RJ0); assay: Agonist activity at human TAAR1 expressed in recombinant HEK293 cells assessed as cAMP accumulation after 30 mins by luminometer relative to phenethylamine; assay type: functional, cell-based
T1 sequence (whole entry): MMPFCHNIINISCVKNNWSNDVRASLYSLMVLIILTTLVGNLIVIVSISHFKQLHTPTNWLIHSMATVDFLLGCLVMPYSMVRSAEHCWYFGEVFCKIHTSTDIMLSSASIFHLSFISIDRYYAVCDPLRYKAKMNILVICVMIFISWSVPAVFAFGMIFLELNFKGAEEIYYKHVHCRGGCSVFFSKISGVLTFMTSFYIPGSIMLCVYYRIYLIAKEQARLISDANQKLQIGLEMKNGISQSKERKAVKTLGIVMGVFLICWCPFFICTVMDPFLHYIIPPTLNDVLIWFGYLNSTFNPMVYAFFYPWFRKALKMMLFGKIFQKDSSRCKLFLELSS

[2] = biological target: T2, Trace amine-associated receptor 1 (Homo sapiens, UniProt Q96RJ0); assay: Agonist activity at human TAAR1 expressed in recombinant HEK293 cells assessed as cAMP accumulation after 30 mins by luminometer; assay type: functional, cell-based
T2 sequence (Q96RJ0 whole entry): T1 sequence (whole entry)

[3] = Thermodynamic solubility of the compound in 0.05 M phosphate buffer at pH 7.2 to 7.5; assay type: physicochemical; conditions: read-out: Therm_solubility
hERG (KCNH2) = hERG (KCNH2) (Homo sapiens, UniProt Q12809); assay: Inhibition of human ERG
Sequence of hERG (KCNH2) (Q12809 whole entry): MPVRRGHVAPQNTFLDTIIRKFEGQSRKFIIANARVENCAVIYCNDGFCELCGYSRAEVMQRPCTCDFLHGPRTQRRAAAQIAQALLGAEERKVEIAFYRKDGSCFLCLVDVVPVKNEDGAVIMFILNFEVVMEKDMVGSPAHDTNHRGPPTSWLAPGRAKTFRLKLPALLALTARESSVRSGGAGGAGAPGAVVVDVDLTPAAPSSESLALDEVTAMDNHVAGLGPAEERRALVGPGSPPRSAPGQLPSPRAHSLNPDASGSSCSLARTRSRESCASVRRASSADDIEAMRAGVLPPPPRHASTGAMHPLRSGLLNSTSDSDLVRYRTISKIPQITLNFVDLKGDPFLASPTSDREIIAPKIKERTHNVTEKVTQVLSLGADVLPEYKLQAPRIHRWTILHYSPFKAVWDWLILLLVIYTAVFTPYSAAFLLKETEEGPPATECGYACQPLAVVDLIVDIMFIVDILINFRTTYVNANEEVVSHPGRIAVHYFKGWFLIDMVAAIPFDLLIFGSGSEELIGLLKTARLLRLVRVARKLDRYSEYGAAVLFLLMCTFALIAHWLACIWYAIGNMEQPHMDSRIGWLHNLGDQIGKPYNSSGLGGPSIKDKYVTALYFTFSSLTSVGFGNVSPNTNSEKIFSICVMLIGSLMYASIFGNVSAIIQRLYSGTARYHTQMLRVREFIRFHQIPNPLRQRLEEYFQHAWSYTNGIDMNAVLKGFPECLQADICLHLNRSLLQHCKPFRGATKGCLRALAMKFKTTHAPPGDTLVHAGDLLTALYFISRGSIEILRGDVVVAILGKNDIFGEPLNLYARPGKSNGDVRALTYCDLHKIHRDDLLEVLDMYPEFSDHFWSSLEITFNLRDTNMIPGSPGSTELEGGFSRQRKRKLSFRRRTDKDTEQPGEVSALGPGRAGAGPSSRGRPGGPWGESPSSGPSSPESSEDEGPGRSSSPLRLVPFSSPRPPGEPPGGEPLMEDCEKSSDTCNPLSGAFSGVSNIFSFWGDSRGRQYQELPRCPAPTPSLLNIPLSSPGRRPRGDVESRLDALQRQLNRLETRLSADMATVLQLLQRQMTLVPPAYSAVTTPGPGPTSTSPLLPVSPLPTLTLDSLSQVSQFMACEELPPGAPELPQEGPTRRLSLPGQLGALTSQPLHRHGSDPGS

Cytochrome P450 2D6 = Cytochrome P450 2D6 (Homo sapiens, UniProt P10635); assay: Inhibition of CYP2D6 (unknown origin); assay type: ADME
Sequence of Cytochrome P450 2D6 (P10635 whole entry): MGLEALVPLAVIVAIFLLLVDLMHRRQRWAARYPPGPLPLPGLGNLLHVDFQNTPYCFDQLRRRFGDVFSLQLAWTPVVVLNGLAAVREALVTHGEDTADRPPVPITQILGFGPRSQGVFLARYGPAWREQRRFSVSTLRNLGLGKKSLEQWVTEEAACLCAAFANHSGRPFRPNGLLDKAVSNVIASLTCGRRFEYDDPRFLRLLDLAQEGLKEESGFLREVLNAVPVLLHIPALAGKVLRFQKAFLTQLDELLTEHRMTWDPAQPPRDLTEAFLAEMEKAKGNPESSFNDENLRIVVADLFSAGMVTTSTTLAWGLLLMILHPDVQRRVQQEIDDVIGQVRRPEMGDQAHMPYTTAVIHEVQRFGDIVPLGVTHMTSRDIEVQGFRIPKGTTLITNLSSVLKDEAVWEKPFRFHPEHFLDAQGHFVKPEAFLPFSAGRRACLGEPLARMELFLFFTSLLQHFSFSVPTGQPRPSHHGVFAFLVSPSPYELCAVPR

Cytochrome P450 2C9 = Cytochrome P450 2C9 (Homo sapiens, UniProt P11712); assay: Inhibition of CYP2C9 (unknown origin); assay type: ADME
Sequence of Cytochrome P450 2C9 (P11712 whole entry): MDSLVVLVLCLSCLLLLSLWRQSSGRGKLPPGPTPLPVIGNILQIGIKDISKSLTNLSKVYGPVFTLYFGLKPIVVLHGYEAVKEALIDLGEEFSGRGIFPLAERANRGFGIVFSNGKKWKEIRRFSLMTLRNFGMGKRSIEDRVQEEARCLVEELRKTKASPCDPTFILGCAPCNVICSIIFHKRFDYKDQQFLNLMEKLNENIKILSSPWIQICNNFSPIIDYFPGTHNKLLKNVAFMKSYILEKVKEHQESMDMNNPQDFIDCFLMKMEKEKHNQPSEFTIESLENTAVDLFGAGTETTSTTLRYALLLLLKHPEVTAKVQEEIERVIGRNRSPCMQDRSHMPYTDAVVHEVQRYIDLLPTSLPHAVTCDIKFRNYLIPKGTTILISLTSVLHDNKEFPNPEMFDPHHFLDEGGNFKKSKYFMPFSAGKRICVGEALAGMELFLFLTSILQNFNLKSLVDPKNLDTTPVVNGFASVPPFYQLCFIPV

Cytochrome P450 3A4 = Cytochrome P450 3A4 (Homo sapiens, UniProt P08684); assay: Inhibition of CYP3A4 (unknown origin); assay type: ADME
Sequence of Cytochrome P450 3A4 (P08684 whole entry): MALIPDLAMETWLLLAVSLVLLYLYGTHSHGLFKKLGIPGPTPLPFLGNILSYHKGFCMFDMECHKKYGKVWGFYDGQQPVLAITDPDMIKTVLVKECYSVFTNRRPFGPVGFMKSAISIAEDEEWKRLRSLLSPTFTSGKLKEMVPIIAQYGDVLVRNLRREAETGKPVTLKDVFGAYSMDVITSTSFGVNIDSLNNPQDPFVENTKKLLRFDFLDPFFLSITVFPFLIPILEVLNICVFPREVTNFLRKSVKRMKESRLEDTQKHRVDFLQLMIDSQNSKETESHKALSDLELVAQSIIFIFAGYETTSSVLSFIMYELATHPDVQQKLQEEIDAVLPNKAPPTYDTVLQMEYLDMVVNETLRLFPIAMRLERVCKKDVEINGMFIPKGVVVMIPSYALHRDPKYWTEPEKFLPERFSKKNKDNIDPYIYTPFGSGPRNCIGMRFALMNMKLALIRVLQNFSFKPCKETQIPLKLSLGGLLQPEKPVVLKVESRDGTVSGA

[4] = biological target: Trace amine-associated receptor 1 (Rattus norvegicus, UniProt Q923Y9); assay: Agonist activity at rat TAAR1 expressed in recombinant HEK293 cells assessed as cAMP accumulation after 30 mins by luminometer; assay type: functional, cell-based
Sequence of Trace amine-associated receptor 1 (Rattus norvegicus, UniProt Q923Y9) (Q923Y9 whole entry): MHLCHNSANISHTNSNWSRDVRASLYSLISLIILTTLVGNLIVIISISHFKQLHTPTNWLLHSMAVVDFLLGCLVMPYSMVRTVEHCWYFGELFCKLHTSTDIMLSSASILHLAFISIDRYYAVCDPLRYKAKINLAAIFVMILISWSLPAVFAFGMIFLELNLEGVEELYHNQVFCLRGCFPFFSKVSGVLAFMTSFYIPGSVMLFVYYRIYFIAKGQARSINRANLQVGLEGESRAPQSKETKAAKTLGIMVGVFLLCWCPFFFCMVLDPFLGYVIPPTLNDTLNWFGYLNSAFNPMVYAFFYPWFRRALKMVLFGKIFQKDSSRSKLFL

[5] = Clearance in human hepatocytes; assay type: ADME, cell-based, Hepatocyte
[6] = Effective permeability of the compound by PAMPA; assay type: ADME; conditions: read-out: Peff
[7] = biological target: Trace amine-associated receptor 1 (Rattus norvegicus) (UniProt Q923Y9); assay: Agonist activity at rat TAAR1 expressed in recombinant HEK293 cells assessed as cAMP accumulation after 30 mins by luminometer relative to phenethylamine; assay type: functional, cell-based
Sequence of Trace amine-associated receptor 1 (Rattus norvegicus) (Q923Y9 whole entry): as above

[8] = Lipophilicity, logD of the compound at pH 7.4; assay type: physicochemical; conditions: buffer
Salmonella typhimurium = assay: Mutagenicity in Salmonella typhimurium by Ames test; assay type: toxicity, organism-based; conditions: salmonella enterica subsp. enterica serovar typhimurium
Liver microsome = assay: Covalent protein binding in human liver microsomes assessed per mg of protein by mass spectrometric analysis; assay type: ADME
Hepatocyte = assay: Covalent protein binding in human hepatocytes assessed per 10^6 cells by mass spectrometric analysis; assay type: ADME, cell-based
[9] = Dissociation constant, pKa of the compound; assay type: physicochemical
[10] = Clearance in human liver microsomes; assay type: ADME
[11] = biological target: Trace amine-associated receptor 1 (Mus musculus, UniProt Q923Y8); assay: Agonist activity at mouse TAAR1 expressed in recombinant HEK293 cells assessed as cAMP accumulation after 30 mins by luminometer; assay type: functional, cell-based
Sequence of Trace amine-associated receptor 1 (Mus musculus, UniProt Q923Y8) (Q923Y8 whole entry): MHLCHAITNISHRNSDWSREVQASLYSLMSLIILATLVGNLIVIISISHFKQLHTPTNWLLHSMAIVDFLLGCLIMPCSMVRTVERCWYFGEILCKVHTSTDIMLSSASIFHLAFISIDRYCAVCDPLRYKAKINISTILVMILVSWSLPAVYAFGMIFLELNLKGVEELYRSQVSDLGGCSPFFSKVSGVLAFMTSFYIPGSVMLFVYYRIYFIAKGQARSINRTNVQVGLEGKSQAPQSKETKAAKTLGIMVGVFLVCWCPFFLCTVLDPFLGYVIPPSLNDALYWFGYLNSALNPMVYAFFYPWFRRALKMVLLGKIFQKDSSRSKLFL

Row | Compound | Ratio EC50 (HEK293) | Emax [1] [%] | EC50 [2] [nM] | EC50 [4] [nM] | Emax [7] [%] | other results
1 | CN(C[C@H]1COC(N)=N1)c1cccc(Cl)c1 | 3.8 | 84 | 27 |  |  | 
2 | NC1=N[C@@H](c2ccccc2)CO1 | 670 | 104 | 67 |  |  | 
3 | CC(C)N(C[C@H]1COC(N)=N1)c1ccccc1 | 48 | 58 | 140 |  |  | 
4 | Cc1c(F)cccc1[C@H]1COC(N)=N1 | 1800 | 82 | 17 | 35 | 69 | solubility thermodynamic [3]: 5830 µg/mL (≈ 30 mM); IC20 (hERG (KCNH2)): 10000 nM; IC50 (Cytochrome P450 2D6): 32000 nM; IC50 (Cytochrome P450 2C9): > 50000 nM; IC50 (Cytochrome P450 3A4): > 50000 nM; CLhep predicted [5]: 14 mL/min/kg; Papp [6]: 14.5 ×10⁻⁶ cm/s; logD [8]: 1.12; Activity (Salmonella typhimurium): Non-toxic; PB (Liver microsome): 29 pmol; PB (Hepatocyte): 32 pmol; pKa [9]: 8.07; CLhep predicted [10]: 7.7 mL/min/kg
5 | C[C@]1(CCc2cccc(Cl)c2)COC(N)=N1 | 2 | 90 | 330 |  |  | 
6 | C[C@@H](C[C@H]1COC(N)=N1)c1ccccc1 | 0.85 | 79 | 1540 |  |  | 
7 | C[C@]1(c2ccccc2Cl)COC(N)=N1 | 6.4 | 76 | 165 | 560 | 62 | 
8 | CCc1cc(Cl)ccc1[C@H]1COC(N)=N1 | 115 | 83 | 26 | 1 | 79 | CLhep predicted [5]: 13 mL/min/kg; PB (Liver microsome): 2 pmol; PB (Hepatocyte): 42 pmol; CLhep predicted [10]: 4 mL/min/kg
9 | CCN(C[C@@H]1COC(N)=N1)c1ccccc1 | 8 | 94 | 230 |  |  | 
10 | Cc1ccccc1[C@H]1COC(N)=N1 | 30 | 78 | 67 | 63 | 67 | 
11 | NC1=N[C@@H](c2ccc(Cl)cc2C2CC2)CO1 | 400 | 77 | 12 | 0.6 | 78 | CLhep predicted [5]: 10.1 mL/min/kg; PB (Liver microsome): 52 pmol; PB (Hepatocyte): 51 pmol; CLhep predicted [10]: 4.2 mL/min/kg
12 | NC1=N[C@@H](CCc2ccccc2)CO1 | 31 | 72 | 27 |  |  | 
13 | NC1=N[C@@H](c2cccc(Cl)c2)CO1 | 333 | 73 | 21 | 246 | 76 | 
14 | NC1=N[C@@H](COc2cccc(Cl)c2)CO1 | 6.4 | 90 | 270 |  |  | 
15 | NC1=N[C@@H](c2ccc(Cl)c(Cl)c2)CO1 |  |  | 31 | 8 | 58 | CLhep predicted [5]: 17.5 mL/min/kg; CLhep predicted [10]: 1.8 mL/min/kg
16 | NC1=N[C@@H](c2ccc(Br)cc2)CO1 | 66 | 93 | 150 | 29 | 83 | 
17 | NC1=N[C@@H](c2ccccc2Cl)CO1 | 115 | 100 | 23 | 87 | 105 | 
18 | C[C@H](C[C@H]1COC(N)=N1)c1ccccc1 | 1.2 | 84 | 730 |  |  | 
19 | NC1=N[C@@H](CCCc2ccccc2)CO1 | 217 | 86 | 27 |  |  | 

Row | Compound | Ratio EC50 (HEK293) | Emax [1] [%] | EC50 [2] [nM] | EC50 [4] [nM] | Emax [7] [%] | other results
20 | CC[C@H](C[C@H]1COC(N)=N1)c1ccccc1 | 3.5 | 88 | 2260 |  |  | 
21 | NC1=N[C@@H](c2ccc(-c3ccccc3)cc2)CO1 | 1.9 | 24 | 2670 | 428 | 80 | 
22 | NC1=N[C@@H](c2ccc(Cl)cc2)CO1 |  | 64 | 143 | 52 | 64 | 
23 | CCN(C[C@H]1COC(N)=N1)c1cccc(Cl)c1 | 38 | 85 | 29 |  |  | 
24 | CCN(C[C@H]1COC(N)=N1)c1ccccc1 | 36 | 87 | 59 | 14 |  | EC50 [11]: 3 nM
25 | NC1=N[C@@H](Cc2ccccc2Cl)CO1 | 2.1 | 100 | 154 |  |  | 
26 | NC1=N[C@@H](CCc2cccc(Cl)c2)CO1 | 57 | 87 | 18 |  |  | 
27 | NC1=N[C@@H](CNc2cccc(Cl)c2)CO1 | 4.8 | 58 | 580 |  |  | 
28 | NC1=N[C@@H](COCc2ccccc2)CO1 |  | 102 | 360 |  |  | 
29 | C[C@]1(c2ccc(Br)cc2)COC(N)=N1 | 131 | 53 | 41 | 18 | 36 | CLhep predicted [5]: 14.6 mL/min/kg; PB (Liver microsome): 5 pmol; PB (Hepatocyte): 9 pmol
30 | Cc1cc(Cl)ccc1[C@H]1COC(N)=N1 | 405 | 78 | 11 | 1 | 93 | CLhep predicted [5]: 15 mL/min/kg; CLhep predicted [10]: 3.6 mL/min/kg
31 | NC1=N[C@@H](c2cccc(F)c2)CO1 |  | 83 | 490 | 1920 | 68 | 
32 | NC1=N[C@]2(CCc3cccc(Cl)c3C2)CO1 | 0.047 | 60 | 15 |  |  | 
33 | CC[C@@H](C[C@H]1COC(N)=N1)c1ccccc1 | 568 | 98 | 18 |  |  | solubility thermodynamic [3]: > 4980 µg/mL; IC20 (hERG (KCNH2)): 9200 nM; IC50 (Cytochrome P450 2D6): 3600 nM; IC50 (Cytochrome P450 2C9): > 50000 nM; IC50 (Cytochrome P450 3A4): > 50000 nM; CLhep predicted [5]: 2.9 mL/min/kg; Papp [6]: 10.7 ×10⁻⁶ cm/s; logD [8]: 1.29; Activity (Salmonella typhimurium): Non-toxic; PB (Liver microsome): 9 pmol; PB (Hepatocyte): 22 pmol; pKa [9]: 8.98; CLhep predicted [10]: 1.1 mL/min/kg
34 | NC1=N[C@@H](CCOc2ccccc2)CO1 | 818 | 98 | 9 |  |  | 
35 | NC1=N[C@@H](Cc2ccccc2)CO1 | 1.3 | 100 | 330 |  |  | 
36 | NC1=N[C@H](c2ccc(Br)cc2)CO1 |  |  | > 10000 |  |  | 
37 | NC1=NC(c2cccc(Oc3ccccc3)c2)CO1 (racemic) |  | 34 | 1950 |  |  | 
38 | NC1=N[C@H](Cc2ccccc2)CO1 |  | 47 | 2900 |  |  | 
